SMILES strings stand for the structures. A value given as a limit tells only on which side of the number the result lay.

Data set [1] is described as follows: Monkey 7-day dose range finding study. The data set is classed as in vivo. Here is the method:
Preparation of the Control/Vehicle Item: The control/vehicle item (2% TPGS/1.5% HPMCAS-HF/1.5% PVP-VA with 50 mM sodium citrate buffer pH 5.0) was prepared 3 days prior to the start of dosing and was stored at room temperature, away from direct light for the duration of the study. The instructions below were for the preparation of a final volume of 2.5 L. These instructions were scaled as needed.
500 mL of 10% Vitamin E-TPGS were added to an appropriate sized container and stirring was initiated. 750 mL of 5% HPMCAS-HF/5% PVP-VA were added to the same container and stirred at medium speed for 30 minutes to ensure proper mixing. 1 L of deionized water was added and stirring was continued for 30 minutes. 125 mL of 1M sodium citrate buffer and 125 mL of deionized water were added with stirring. The final vehicle was stirred at medium speed for 1 hour. The vehicle was a hazy solution and was stored at room temperature, away from direct light for the duration of the study.
Experimental Design: The test and control/vehicle items were administered once daily for 7 consecutive days by oral gavage as described in Table 6 below. The dose volume administered to each animal was 5 mL/kg. One day after the end of dosing, the Main animals were euthanized and subjected to a necropsy examination on Day 8.

A short description of data set [2]: Monkey cardiovascular (CV) study. The data set is classed as in vivo. The following applies: 25 and 40 mg/kg oral gavage, male monkeys, cross-over.
A short description of data set [3]: Rat 28-day GLP toxicity study. The data set is classed as in vivo, CD [Crl:CD (SD)] rats. Here is the method:
Vehicle and Test Article Preparation: The vehicle, 2% TPGS/1.5% HPMCAS-HF/1.5% PVP-VA with 50 mM pH 5.0 sodium citrate in deionized water, was prepared for use weekly and was stored at room temperature when not in use. A correction factor of 4 was used to adjust for purity when preparing the LPT-723 formulations. Appropriate amounts of the LPT-723 were mixed with the vehicle to achieve nominal concentrations of 0.3, 0.6, and 1.2 mg/mL. Formulations of the LPT-723 were prepared daily, stored at room temperature, protected from light, and were dosed within 4 hours of preparation.
Animal Acquisition and Acclimation: A total of 98 male and 98 female CD® [Crl:CD® (SD)] rats (approximately 6 to 7 weeks of age at receipt) were received from Charles River Laboratories, Portage, Mich. During the 10-day acclimation period, the animals were observed daily with respect to general health and any signs of disease. All animals were given a detailed clinical examination prior to selection for study. The animals were administered a sham dose of tap water on two occasions in the same manner and dose volume intended for use on study.
Randomization, Assignment to Study, and Maintenance: Using a standard, by weight, measured value randomization procedure, 85 male and 85 female animals (weighing 228 to 283 g and 170 to 218 g, respectively, at randomization) were assigned to the control and treatment groups identified in the following table.
Vehicle and LPT-723 Administration: Vehicle and LPT-723 were administered once daily for 22 days for main study animals at 12 mg/kg/day, for 23 days for TK animals at 12 mg/kg/day, and for 28 days for all animals at 0, 3, and 6 mg/kg/day. The animals were dosed via oral gavage at a dose volume of 10 mL/kg. The control group received the vehicle in the same manner as the treated groups. The vehicle and test article were dosed from stirred formulations at approximately the same time each day (±2 hours) based on the first animal dosed each day. Individual doses were based on the most recent body weights.

Turning to `Cc1cc(-c2cncc(C(O)C(F)(F)F)c2)nc2c1C(=O)N(c1cnn(CC(F)F)c1)C2(C)C` (stereo not drawn) [LPT-723], the “highest dose versus maximum tolerated dose” value in data set [1] (monkey, 40 mg/kg/day oral, 7 days) is “exceeded the maximum tolerated dose (MTD)”. The lymphocyte counts result in data set [1] (monkey, 15, 25, 40 mg/kg/day, 7 days) is reported as “dose-related decrease in lymphocyte counts”. Also, in data set [1] (monkey, with lower doses), the expected therapeutic index entry was “approximately 5”. In addition, the toxicological observations result in data set [2] is “no significant toxicological observations”. Moreover, in data set [3], the therapeutic index was under 4 and the tolerability entry is on record as “poorly tolerated”. In addition, in data set [3] (both sexes, CD [Crl:CD (SD)], in vivo, oral gavage once daily, 3, 6, 12 mg/kg/day, read-out: no observed adverse effect level (NOAEL)), the NOAEL (in general, the highest tested level that showed no adverse finding) is under 3 mg/kg. Also, the circulating neutrophils entry in data set [3] (clinical chemistry) was “large increase in circulating neutrophils”. Moreover, the tissue findings result in data set [3] (particularly gastrointestinal tract) is “inflammatory state in multiple organs”.

(Values after patent publication US11033537B2, “LPT-723 and immune checkpoint inhibitor combinations and methods of treatment” (BIOMED VALLEY DISCOVERIES, INC., priority 2015, dated 2021).)
